Test results from patent US20230365592A1 (Agios Pharmaceuticals, Inc., priority 2022, published 2023).

Target: T1, human PAH with the R408W mutation (Homo sapiens, UniProt P00439, R408W)
T1 construct: expressed in transfected cells
T1 sequence (P00439 1-452 R408W): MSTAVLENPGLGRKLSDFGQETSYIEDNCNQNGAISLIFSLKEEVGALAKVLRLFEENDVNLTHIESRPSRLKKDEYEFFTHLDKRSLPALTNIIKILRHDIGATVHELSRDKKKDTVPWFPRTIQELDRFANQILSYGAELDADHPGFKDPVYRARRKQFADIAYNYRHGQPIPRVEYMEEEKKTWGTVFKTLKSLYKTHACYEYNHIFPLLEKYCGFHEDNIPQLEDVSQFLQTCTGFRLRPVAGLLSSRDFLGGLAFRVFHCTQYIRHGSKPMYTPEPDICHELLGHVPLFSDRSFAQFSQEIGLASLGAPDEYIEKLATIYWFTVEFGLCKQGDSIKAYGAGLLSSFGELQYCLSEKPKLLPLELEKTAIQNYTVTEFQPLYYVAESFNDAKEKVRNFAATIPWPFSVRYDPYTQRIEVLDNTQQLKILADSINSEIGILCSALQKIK
Assay: Cell Based Phenylalanine Flux Assay;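 also: after compound treatment, cells received sepiapterin plus isotope-labelled Phenylalanine for 4 hours, then labelled Tyrosine in the medium was quantified, 10-point 2-fold dilution series run in duplicate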
Details: A375 cells expressing R408W PAH; 24 hrs with compound, then 20 µM sepiapterin and 800 µM 13C9,15N-Phenylalanine for 4 hours; 13C-Tyrosine by LC-MS; average where tested multiple times; read-out: AC50

How did the AC50 turn out when `Nc1cnc(N2CCc3[nH]cnc3[C@H]2c2cc3cccc(C(F)F)n3n2)nc1` (single isomer, unassigned) was run?
The AC50 was over 5000 nM.

Which AC50 does the source give for `COc1cccn2nc([C@@H]3c4nc[nH]c4CCN3C(=O)c3nnc(-c4ccn(C)n4)o3)cc12` (single isomer, unassigned) here?
Its AC50 is 1000 to 5000 nM.

For `Cn1cncc1-c1nnc(C(=O)N2CCc3[nH]cnc3C2c2cc3c(C(F)F)cccn3n2)o1` (stereo not drawn), which AC50 is on record?
Its AC50 is 1000 to 5000 nM.

Which AC50 does the source give for `Cc1cccn2nc(C3c4nc[nH]c4CCN3C(=O)c3nnc(N4CCN(C)CC4)o3)cc12` (stereo not drawn) here?
The AC50 was 1000 to 5000 nM.

For `CC(C)(O)c1nc(C(=O)N2CCc3[nH]cnc3C2c2cc3ccccn3n2)no1` (stereo not drawn), which AC50 is on record?
Its AC50 is over 5000 nM.

How did the AC50 turn out when `O=C(c1nccs1)N1CCc2[nH]cnc2C1c1cc2ccccn2n1` (stereo not drawn) was run?
The AC50 was 1000 to 5000 nM.

`CN(C)Cc1ccc2c(C(=O)N3CCc4[nH]cnc4C3c3cc4cccc(C(F)F)n4n3)cnn2c1` (stereo not drawn) was tested. Which AC50 did it give?
The AC50 was over 5000 nM.

For `Cc1nc(C(=O)N2CCc3[nH]cnc3C2c2cc3ccccn3n2)n(C)n1` (stereo not drawn), which AC50 is on record?
The AC50 was 1000 to 5000 nM.

Which AC50 does the source give for `FC(F)(F)c1cccc2cc(C3c4nc[nH]c4CCN3c3nnc(-c4cnccn4)o3)nn12` (stereo not drawn) here?
Its AC50 is 1000 to 5000 nM.

With `Fc1ncccc1-c1nnc(N2CCc3[nH]cnc3C2c2cc3ccccn3n2)o1` (stereo not drawn) as the molecule, how does the AC50 read?
The AC50 was 1000 to 5000 nM.

Same assay, conditions: A375 cells expressing human PAH R408W; 24 hrs compound incubation; 13C-Tyrosine by LC-MS; average where tested multiple times; read-out: AC50

For `FC(F)(F)c1cnc(N2CCc3[nH]cnc3[C@@H]2c2cc3c(C4CC4)cccn3n2)nc1` [Example 2175, (R)-4-(4-cyclopropylpyrazolo[1,5-a]pyridin-2-yl)-5-(5-(trifluoromethyl)pyrimidin-2-yl)-4,5,6,7-tetrahydro-1H-imidazo[4,5-c]pyridine], which AC50 is on record?
Its AC50 is over 5000 nM.

Which AC50 does the source give for `CN(C)CCc1ccc2c(C(=O)N3CCc4[nH]cnc4[C@H]3c3cc4c(C(F)(F)F)cccn4n3)cnn2c1` [Example 2476, (S)-(6-(2-(dimethylamino)ethyl)pyrazolo[1,5-a]pyridin-3-yl)(4-(4-(trifluoromethyl)pyrazolo[1,5-a]pyridin-2-yl)-6,7-dihydro-1H-imidazo[4,5-c]pyridin-5(4H)-yl)methanone] here?
Its AC50 is 1000 to 5000 nM.

`c1cc(C2CC2)c2cc([C@@H]3c4nc[nH]c4CCN3c3cnccn3)nn2c1` [Example 2225, (S)-4-(4-cyclopropylpyrazolo[1,5-a]pyridin-2-yl)-5-(pyrazin-2-yl)-4,5,6,7-tetrahydro-1H-imidazo[4,5-c]pyridine] was tested. Which AC50 did it give?
The AC50 was under 500 nM.

For `CC(C)c1cccn2nc([C@H]3c4nc[nH]c4CCN3c3nnc(-c4ccncn4)o3)cc12` [Example 2181, (R)-2-(4-(4-isopropylpyrazolo[1,5-a]pyridin-2-yl)-1,4,6,7-tetrahydro-5H-imidazo[4,5-c]pyridin-5-yl)-5-(pyrimidin-4-yl)-1,3,4-oxadiazole], which AC50 is on record?
The AC50 was over 5000 nM.

For `O=C(c1ocnc1C1CC1)N1CCc2[nH]cnc2[C@H]1c1cc2cccc(Cl)n2n1` [Example 2042, (S)-(4-(7-chloropyrazolo[1,5-a]pyridin-2-yl)-1,4,6,7-tetrahydro-5H-imidazo[4,5-c]pyridin-5-yl)(4-cyclopropyloxazol-5-yl)methanone], which AC50 is on record?
The AC50 was 500 to 1000 nM.

`Fc1ccc(-c2nnc(N3CCc4[nH]cnc4[C@H]3c3cc4cccc(C(F)F)n4n3)o2)cc1` [Example 2131, (S)-2-(4-(7-(difluoromethyl)pyrazolo[1,5-a]pyridin-2-yl)-1,4,6,7-tetrahydro-5H-imidazo[4,5-c]pyridin-5-yl)-5-(4-fluorophenyl)-1,3,4-oxadiazole] was tested. Which AC50 did it give?
Its AC50 is under 500 nM.

How did the AC50 turn out when `Fc1cccn2nc([C@H]3c4nc[nH]c4CCN3c3nnc(-c4ccncn4)o3)cc12` [Example 2179, (R)-2-(4-(4-fluoropyrazolo[1,5-a]pyridin-2-yl)-1,4,6,7-tetrahydro-5H-imidazo[4,5-c]pyridin-5-yl)-5-(pyrimidin-4-yl)-1,3,4-oxadiazole] was run?
The AC50 was over 5000 nM.

Which AC50 does the source give for `Cc1nnc(N2CCc3[nH]cnc3[C@H]2c2cc3c(C4CC4)cccn3n2)o1` [Example 2187, (S)-2-(4-(4-cyclopropylpyrazolo[1,5-a]pyridin-2-yl)-1,4,6,7-tetrahydro-5H-imidazo[4,5-c]pyridin-5-yl)-5-methyl-1,3,4-oxadiazole] here?
The AC50 was under 500 nM.

With `CCc1cccn2nc([C@@H]3c4nc[nH]c4CCN3C(=O)c3nnc(C4CC4)o3)cc12` [Example 1875, (S)-(5-cyclopropyl-1,3,4-oxadiazol-2-yl)(4-(4-ethylpyrazolo[1,5-a]pyridin-2-yl)-1,4,6,7-tetrahydro-5H-imidazo[4,5-c]pyridin-5-yl)methanone] as the molecule, how does the AC50 read?
Its AC50 is under 500 nM.

Same assay, conditions: A375 cells expressing human R408W PAH; 24 hrs compound incubation; 13C-Tyrosine by LC-MS; average where tested multiple times; read-out: AC50

How did the AC50 turn out when `Cc1cccc(-c2nnc(C(=O)N3CCc4[nH]cnc4[C@@H]3c3cc4cccc(C)n4n3)o2)n1` [Example 1399, (R)-(4-(7-methylpyrazolo[1,5-a]pyridin-2-yl)-6,7-dihydro-1H-imidazo[4,5-c]pyridin-5(4H)-yl)(5-(6-methylpyridin-2-yl)-1,3,4-oxadiazol-2-yl)methanone] was run?
The AC50 was 1000 to 5000 nM.

`CC(C)(C)c1nnc(C(=O)N2CCc3[nH]cnc3[C@@H]2c2cc3c(Cl)cccn3n2)o1` [Example 1046, (R)-(5-(tert-butyl)-1,3,4-oxadiazol-2-yl)(4-(4-chloropyrazolo[1,5-a]pyridin-2-yl)-6,7-dihydro-1H-imidazo[4,5-c]pyridin-5(4H)-yl)methanone] was tested. Which AC50 did it give?
The AC50 was over 5000 nM.

Which AC50 does the source give for `O=C(c1nnc(-c2ccccn2)o1)N1CCc2[nH]cnc2[C@@H]1c1cc2cccc(C(F)(F)F)n2n1` [Example 1029, (R)-(5-(pyridin-2-yl)-1,3,4-oxadiazol-2-yl)(4-(7-(trifluoromethyl)pyrazolo[1,5-a]pyridin-2-yl)-6,7-dihydro-1H-imidazo[4,5-c]pyridin-5(4H)-yl)methanone] here?
Its AC50 is 1000 to 5000 nM.

Which AC50 does the source give for `Cc1nn(C)cc1-c1nnc(C(=O)N2CCc3[nH]cnc3[C@@H]2c2cc3cccc(F)n3n2)o1` [Example 1567, (R)-(5-(1,3-dimethyl-1H-pyrazol-4-yl)-1,3,4-oxadiazol-2-yl)(4-(7-fluoropyrazolo[1,5-a]pyridin-2-yl)-6,7-dihydro-1H-imidazo[4,5-c]pyridin-5(4H)-yl)methanone] here?
Its AC50 is 1000 to 5000 nM.

For `Cn1cnc(-c2nnc(C(=O)N3CCc4[nH]cnc4[C@H]3c3cc4cccc(Cl)n4n3)o2)c1` [Example 1099, (S)-(4-(7-chloropyrazolo[1,5-a]pyridin-2-yl)-6,7-dihydro-1H-imidazo[4,5-c]pyridin-5(4H)-yl)(5-(1-methyl-1H-imidazol-4-yl)-1,3,4-oxadiazol-2-yl)methanone], which AC50 is on record?
Its AC50 is 500 to 1000 nM.

For `Cc1cccc2cc([C@H]3c4nc[nH]c4CCN3C(=O)c3oc(C(C)(C)O)nc3C(F)F)nn12` [Example 795, (R)-(4-(difluoromethyl)-2-(2-hydroxypropan-2-yl)oxazol-5-yl)(4-(7-methylpyrazolo[1,5-a]pyridin-2-yl)-6,7-dihydro-1H-imidazo[4,5-c]pyridin-5(4H)-yl)methanone], which AC50 is on record?
Its AC50 is 1000 to 5000 nM.

How did the AC50 turn out when `COc1ccc2c(C(=O)N3CCc4[nH]cnc4[C@@H]3c3cc4c(C(F)F)cccn4n3)cnn2c1` [Example 1677, (R)-(4-(4-(difluoromethyl)pyrazolo[1,5-a]pyridin-2-yl)-6,7-dihydro-1H-imidazo[4,5-c]pyridin-5(4H)-yl)(6-methoxypyrazolo[1,5-a]pyridin-3-yl)methanone] was run?
Its AC50 is over 5000 nM.

Which AC50 does the source give for `Cn1cnc(-c2nnc(C(=O)N3CCc4[nH]cnc4[C@@H]3c3cc4c(C(F)(F)F)cccn4n3)o2)c1` [Example 935, (R)-(5-(1-methyl-1H-imidazol-4-yl)-1,3,4-oxadiazol-2-yl)(4-(4-(trifluoromethyl)pyrazolo[1,5-a]pyridin-2-yl)-6,7-dihydro-1H-imidazo[4,5-c]pyridin-5(4H)-yl)methanone] here?
Its AC50 is over 5000 nM.

How did the AC50 turn out when `CC(C)(F)c1nnc(C(=O)N2CCc3[nH]cnc3[C@H]2c2cc3c(F)cccn3n2)o1` [Example 1024, (S)-(5-(2-fluoropropan-2-yl)-1,3,4-oxadiazol-2-yl)(4-(4-fluoropyrazolo[1,5-a]pyridin-2-yl)-6,7-dihydro-1H-imidazo[4,5-c]pyridin-5(4H)-yl)methanone] was run?
Its AC50 is under 500 nM.

`O=C(c1nnc(-c2cccnc2)o1)N1CCc2[nH]cnc2[C@H]1c1cc2cccc(Cl)n2n1` [Example 1306, (S)-(4-(7-chloropyrazolo[1,5-a]pyridin-2-yl)-6,7-dihydro-1H-imidazo[4,5-c]pyridin-5(4H)-yl)(5-(pyridin-3-yl)-1,3,4-oxadiazol-2-yl)methanone] was tested. Which AC50 did it give?
Its AC50 is under 500 nM.

With `Cn1ccc(-c2nnc(C(=O)N3CCc4[nH]cnc4[C@H]3c3cc4c(Cl)cccn4n3)o2)n1` [Example 718, (S)-(4-(4-chloropyrazolo[1,5-a]pyridin-2-yl)-6,7-dihydro-1H-imidazo[4,5-c]pyridin-5(4H)-yl)(5-(1-methyl-1H-pyrazol-3-yl)-1,3,4-oxadiazol-2-yl)methanone] as the molecule, how does the AC50 read?
Its AC50 is under 500 nM.

Which AC50 does the source give for `Fc1cccn2nc([C@@H]3c4nc[nH]c4CCN3c3ncccn3)cc12` [Example 1616, (S)-4-(4-fluoropyrazolo[1,5-a]pyridin-2-yl)-5-(pyrimidin-2-yl)-4,5,6,7-tetrahydro-1H-imidazo[4,5-c]pyridine] here?
The AC50 was under 500 nM.

For `Cc1ccc2cc([C@@H]3c4nc[nH]c4CCN3C(=O)c3nnc(C(C)(C)F)o3)nn2c1` [Example 1171, (S)-(5-(2-fluoropropan-2-yl)-1,3,4-oxadiazol-2-yl)(4-(6-methylpyrazolo[1,5-a]pyridin-2-yl)-6,7-dihydro-1H-imidazo[4,5-c]pyridin-5(4H)-yl)methanone], which AC50 is on record?
The AC50 was 500 to 1000 nM.

Which AC50 does the source give for `Cc1ccc2cc([C@H]3c4nc[nH]c4CCN3C(=O)c3cnco3)nn2c1` [Example 1186, (R)-(4-(6-methylpyrazolo[1,5-a]pyridin-2-yl)-6,7-dihydro-1H-imidazolo[4,5-c]pyridin-5(4H)-yl)(oxazol-5-yl)methanone] here?
Its AC50 is 500 to 1000 nM.
